Here are results for 11 compounds from patent US6864217B2, “Herbicidal compositions with substituted phenylsulfonylureas for controlling weeds in rice” (Hoechst Schering AgrEvo GmbH, priority 1998, dated 2005).

Where two headings read alike, the source gives them in different places.

The test system of data set [1] is Echinochloa crusgalli. The data set is described as follows: Table 11 greenhouse trial, treatment at the 1-2 leaf stage: weed control. To be noted: 20 days after application. It counts as in vivo. As for the experimental part:
(§1) Seeds or rhizome pieces of mono- and dicotyledonous weed plants are placed into sandy loam soil in plastic pots, covered with soil and grown in a greenhouse under good growth conditions (temperature, atmospheric humidity, water supply). Weeds which are encountered in the cultivation of rice are cultivated in pots in which the water level is up to 2 cm over the soil surface. Three weeks after sowing, the test plants are treated at the three-leaf stage. The active compound combinations according to the invention, formulated as wettable powders or emulsion concentrates, and, in parallel experiments, the correspondingly formulated individual active compounds are sprayed onto the green parts of the plants at different dosages using an amount of water of 300 to 600 l/ha (converted), and, after about 3 to 4 weeks of the test plants in the greenhouse under optimum growth conditions (temperature, atmospheric humidity, water supply), the effect of the preparations is evaluated visually in comparison to untreated controls. In the case of rice or weeds which are encountered in the cultivation of rice, the active compounds are also added directly to the water for irrigation (application analogous to the so-called granules application) or sprayed onto plants and added to the water for irrigation. The experiments were designed with several, up to five, repetitions. The herbicidal compositions according to the invention also have good herbicidal post-emergence activity against a broad spectrum of economically important weed grasses and broad-leaved weeds.
(§2) Greenhouse trial: Treatment at the 1-2 leaf stage, evaluation 20 days after the application.

The test system of data set [2] is Oryza sativa. To be noted: in vivo. As for the experimental part:
as §1, with “The herbicidal compositions according to the invention also have good herbicidal post-emergence activity against a broad spectrum of economically important weed grasses and broad-leaved weeds.” left out

In data set [3] the test system is Echinochloa crusgalli. As to the kind of experiment: Table 17 field trial, treatment at the 2 leaf stage: weed control. It counts as in vivo. To be noted: 14 days after application. The source says: (§3) Field trial: Treatment at the 2 leaf stage, evaluation 14 days after the application.
Data set [4] relates to Oryza sativa. As to the kind of experiment: Table 17 field trial, treatment at the 2 leaf stage: rice damage. In kind it is in vivo. To be noted: 14 days after application.
Excerpt: as §3

Data set [5] deals with Echinochloa crusgalli. As to the kind of experiment: Table 6 field trial, treatment at the 1-2 leaf stage: weed control. In kind it is in vivo. To be noted: 28 days after application.
Experimental: (§7) The examples mentioned below were carried out in the greenhouse, and in some instances, in field trials.
The test system of data set [6] is Oryza sativa. The data set is described as follows: Table 6 field trial, treatment at the 1-2 leaf stage: rice damage. In kind it is in vivo. To be noted: in vivo.
Experimental: as §7
Data set [7] relates to Echinochloa crusgalli. As to the kind of experiment: Table 7 field trial, treatment at the 1-2 leaf stage: weed control. To be noted: 28 days after application. In kind it is in vivo.
Experimental: as §7
In another data set the test system is Marsilea crenata. The data set is described as above. In kind it is in vivo. To be noted: 28 days after application.
In data set [8] the test system is Oryza sativa. The data set is described as follows: Table 7 field trial, treatment at the 1-2 leaf stage: rice damage. In kind it is in vivo. To be noted: 28 days after application.
Experimental: as §7
Data set [9] has as its system Echinochloa crusgalli. The data set is described as follows: Table 8 greenhouse trial, treatment at the 1-2 leaf stage: weed control. It counts as in vivo. To be noted: 22 days after application.
Excerpt: as §1, with “Three weeks after sowing, the test plants are treated at the three-leaf stage.” left out

Data set [10] has as its system Oryza sativa. As to the kind of experiment: Table 8 greenhouse trial, treatment at the 1-2 leaf stage: rice damage. To be noted: 22 days after application. It counts as in vivo.
Excerpt: as §1, with “Three weeks after sowing, the test plants are treated at the three-leaf stage.” left out

The next data set has as its system Polygonum convolvulus. The data set is described as follows: Table 25 field trial, treatment at the 3 leaf stage: weed control. In kind it is in vivo. To be noted: 33 days after application. The source says: (§4) Field trial: Treatment at the 3 leaf stage, evaluation 33 days after the application.
Data set [11] relates to Oryza sativa. As to the kind of experiment: Table 25 field trial, treatment at the 3 leaf stage: rice damage. In kind it is in vivo. To be noted: 33 days after application.
Excerpt: as §4

Another data set relates to Cyperus iria. The data set is described as follows: Table 24 field trial, treatment by the pre-emergence method: weed control. It counts as in vivo. To be noted: 400 g of ai/ha, 53 days after application. An excerpt:
(§5) Field trial: Treatment by the pre-emergence method, evaluation 53 days after the application.

The subject of data set [12] is Oryza sativa. As to the kind of experiment: Table 24 field trial, treatment by the pre-emergence method: rice damage. It counts as in vivo. To be noted: in vivo.
Excerpt: as §5

The next data set has as its system Ipomoea hederacea. The data set is described as follows: Table 20 field trial, treatment at the 4-6 leaf stage: weed control. In kind it is in vivo. To be noted: 28 days after application. The source says: (§6) Field trial: Treatment at the 4-6 leaf stage, evaluation 28 days after the application.
Data set [13] concerns Oryza sativa. The data set is described as follows: Table 20 field trial, treatment at the 4-6 leaf stage: rice damage. It counts as in vivo. To be noted: 28 days after application.
Excerpt: as §6

The subject of the next data set is Commelina benghalensis. As to the kind of experiment: Table 26 field trial, treatment at the 3 leaf stage: weed control. In kind it is in vivo. To be noted: 33 days after application.
Excerpt: as §4

Data set [14] deals with Oryza sativa. The data set is described as follows: Table 26 field trial, treatment at the 3 leaf stage: rice damage. To be noted: 33 days after application. It counts as in vivo.
Excerpt: as §4

In the next data set the test system is Cyperus serotinus. The data set is described as follows: Table 12 greenhouse trial, treatment at the 1-2 leaf stage: weed control. In kind it is in vivo. To be noted: 20 days after application. As to the method: as §1, §2
Data set [15] deals with Oryza sativa. As to the kind of experiment: Table 12 greenhouse trial, treatment at the 1-2 leaf stage: rice damage. To be noted: greenhouse trial, 20 days after application. In kind it is in vivo. As to the method: as §1, §2

Experimental for Marsilea crenata: as §7

Consider `COc1cc(OC)nc(NC(=O)NS(=O)(=O)c2c(Cl)nc3ccccn23)n1` [B61), 2-chloro-N-[[(4,6-dimethoxy-2-pyrimidinyl)amino]-carbonyl]imidazo[1,2-a]pyridine-3-sulfonamide], for which the ECHCG % control in the data set on Echinochloa crusgalli [1] (8 g of ai/ha) amounted to 0%; in the data set on Echinochloa crusgalli [1] (15 g of ai/ha) it was 25%; in the data set on Echinochloa crusgalli [1] (30 g of ai/ha), 50%; in the data set on Echinochloa crusgalli [1] (60 g of ai/ha) it was 60%. Further, the ORYSW % damage with Oryza sativa [2] was 0%.
Turning to `CCOC(=O)C(Cl)Cc1cc(-n2nc(C)n(C(F)F)c2=O)c(F)cc1Cl` (racemic) [B38), ethyl (RS)-2-chloro-3-[2-chloro-5-(4-difluoromethyl-4,5-dihydro-3-methyl-5-oxo-1H-1,2,4-,triazol-1-yl)-4-fluorophenyl]propionate], the values for the ECHCG % control with Echinochloa crusgalli [3] (7.5 g of ai/ha), in the data set with Echinochloa crusgalli [3] (15 g of ai/ha) and with Echinochloa crusgalli [3] (30 g of ai/ha) were 50%, 52% and 52%, respectively. The ORYSW % damage with Oryza sativa [4] (7.5 g of ai/ha), in the data set with Oryza sativa [4] (15 g of ai/ha) and in the data set with Oryza sativa [4] (30 g of ai/ha) was 0% in each case.
With `CCCCOCN(C(=O)CCl)c1c(CC)cccc1CC` [B1), N-(butoxymethyl)-2-chloro-N-(2,6-diethylphenyl)acetamide], the results for the ECHCG % control in the data set with Echinochloa crusgalli [5] (300 g of ai/ha) and in the data set on Echinochloa crusgalli [5] (600 g of ai/ha) were 81% and 89%, respectively. For the same compound, the ORYSW % damage in the data set on Oryza sativa [6] amounted to 0%.
On to `CCC(=O)Nc1ccc(Cl)c(Cl)c1` [B7), N-(3,4-dichlorophenyl)propanamide], for which the ECHCG % control in the data set on Echinochloa crusgalli [7] (1000 g of ai/ha) was found to be 79%; in the data set on Echinochloa crusgalli [7] (2000 g of ai/ha), 88%; in the data set with Echinochloa crusgalli [9] (1250 g of ai/ha), 0%; in the data set with Echinochloa crusgalli [9] (2500 g of ai/ha) it was 0%; in the data set on Echinochloa crusgalli [9] (5000 g of ai/ha) it was 10%. Besides, the MASCR % control in the data set on Marsilea crenata (1000 g of ai/ha) and in the data set with Marsilea crenata (2000 g of ai/ha) was 0% in each case. The ORYSW % damage in the data set on Oryza sativa [8] (1000 g of ai/ha), in the data set with Oryza sativa [8] (2000 g of ai/ha), in the data set with Oryza sativa [10] (1250 g of ai/ha), with Oryza sativa [10] (2500 g of ai/ha) and in the data set on Oryza sativa [10] (5000 g of ai/ha) was 0% in each case.
For `COc1c(Cl)ccc(Cl)c1C(=O)O` [B31), 3,6-dichloro-o-anisic acid], the POLCO % control was 45% with Polygonum convolvulus (240 g of ai/ha) and 80% with Polygonum convolvulus (480 g of ai/ha). Besides, the ORYSW % damage stood at 8% in the data set on Oryza sativa [11] (240 g of ai/ha) and 10% with Oryza sativa [11] (480 g of ai/ha).
As to `CC1(C)CON(Cc2ccccc2Cl)C1=O` [B44), 2-[(2-chlorophenyl)methyl]-4,4-dimethyl-3-isoxazolidinone], in the data set with Cyperus iria, the CYPIR % control worked out at 30%. Moreover, in the data set on Oryza sativa [12], the ORYSW % damage amounted to 0%.
In turn, `O=C(O)COc1nc(Cl)c(Cl)cc1Cl` [B40), [(3,5,6-trichloro-2-pyridinyl)oxy]acetic acid] yielded an IPOHE % control in the data set with Ipomoea hederacea (420 g of ai/ha) of 65%. This compound also returned an ORYSW % damage with Oryza sativa [13] (420 g of ai/ha) of 20%.
`CCN(CC)C(=O)SCc1ccc(Cl)cc1` [B11), S-[(4-chlorophenyl)methyl]diethylcarbamothioate] yielded an IPOHE % control in the data set with Ipomoea hederacea (3300 g of ai/ha) of 43%. The ORYSW % damage in the data set with Oryza sativa [13] (3300 g of ai/ha) is on record as 3%.
On to `COc1nc(C)nc(NC(=O)NS(=O)(=O)c2ccccc2C(=O)O)n1` [B57), 2-(4-methoxy-6-methyl-1,3,5-triazin-2-ylcarbamoyl-sulfamoyl)benzoic acid], for which the COMBE % control is 20% in the data set on Commelina benghalensis (1 g of ai/ha) and 68% with Commelina benghalensis (2 g of ai/ha). For the same compound, the ORYSW % damage with Oryza sativa [14] (1 g of ai/ha) and in the data set on Oryza sativa [14] (2 g of ai/ha) was 0% each time.
For the compound `COCCOc1ccccc1S(=O)(=O)NC(=O)Nc1nc(OC)nc(OC)n1` [B60), N-[[(4,6-dimethoxy-1,3,5-triazin-2-yl)amino]carbonyl]-2-(2-methoxyethoxy)benzolsulfonamide], the CYPSE % control with Cyperus serotinus (15 g of ai/ha) came out at 0%; in the data set on Cyperus serotinus (30 g of ai/ha), 15%; with Cyperus serotinus (60 g of ai/ha) it was 15%. Moreover, the ORYSW % damage in the data set on Oryza sativa [15] (15 g of ai/ha) came out at 0%; with Oryza sativa [15] (30 g of ai/ha), 0%; in the data set with Oryza sativa [15] (60 g of ai/ha), 5%.
As for `CCSC(=O)N1CCCCCC1` [B10), S-ethyl hexahydro-1H-azepin-1-carbothioate], the IPOHE % control with Ipomoea hederacea (4480 g of ai/ha) was 55%. The ORYSW % damage with Oryza sativa [13] (4480 g of ai/ha) was determined as 0%.
